According to patent US4359459A, “O-α-D-Multigalactopyranosyl-O-α-D-multiglucopyranosyl-O-β- D” (American Cyanamid Company, priority 1981, dated 1982):
Where a name gives a salt, the structure may show the parent alone.

What was measured:
shunt pathway = assay: Test Code 036 (C-Shunt inhibitor), lysis of fragile human erythrocytes in autologous serum, cobra venom factor; assay type: biochemical; conditions: in vitro; twofold serial dilution assay, higher well number indicates higher activity
Source text: (§1) An active inhibitor protects C2 from C1 and C4; (ii) Test Code 035 (C3-C9 inhibitor)--This test determines the ability of the late components of human complement (C3-C9) to lyse EAC 142 in the presence of appropriate dilutions of the test compound. An active inhibitor protects EAC 142 from lysis by human C3-C9; (iii) Test Code 036 (C-Shunt inhibitor)--In this test human erythrocytes rendered fragile are lysed in autologous serum via the shunt pathway activated by cobra venom factor in the presence of appropriate dilutions of the test compound. Inhibition of the shunt pathway results in failure of lysis; (iv) Cap 50 Test-- Here, appropriate amounts of the test compound are added to a pool of guinea pig serum in vitro, after which the undiluted serum capillary tube assay of U.S. Pat. No. 3,876,376 is run. The concentration of compound inhibiting 50% is reported; and (v) Guinea Pig Intraperitoneal Test (GPIP)--Guinea Pigs weighing about 300 g are dosed intraperitoneally (i.p.) with 200 mg/kg of the test compound dissolved in saline and adjusted to pH 7-8. […] Percent inhibition is calculated by comparison with simultaneous controls. […]

activated human C1 = target: T1, activated human C1 (Homo sapiens, UniProt P09871); assay: Test Code 026 (C1 inhibitor); assay type: biochemical; conditions: in vitro; twofold serial dilution assay, higher well number indicates higher activity
T1 sequence (P09871 438-688 limits assumed): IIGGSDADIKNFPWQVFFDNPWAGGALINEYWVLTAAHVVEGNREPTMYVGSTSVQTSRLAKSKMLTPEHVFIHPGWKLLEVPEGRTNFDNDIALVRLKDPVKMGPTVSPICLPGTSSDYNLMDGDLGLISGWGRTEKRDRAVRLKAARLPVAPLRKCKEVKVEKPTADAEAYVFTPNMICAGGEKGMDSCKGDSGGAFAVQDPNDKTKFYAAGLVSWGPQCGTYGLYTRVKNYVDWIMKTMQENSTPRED
T1 sequence (P09871 16-437 limits assumed): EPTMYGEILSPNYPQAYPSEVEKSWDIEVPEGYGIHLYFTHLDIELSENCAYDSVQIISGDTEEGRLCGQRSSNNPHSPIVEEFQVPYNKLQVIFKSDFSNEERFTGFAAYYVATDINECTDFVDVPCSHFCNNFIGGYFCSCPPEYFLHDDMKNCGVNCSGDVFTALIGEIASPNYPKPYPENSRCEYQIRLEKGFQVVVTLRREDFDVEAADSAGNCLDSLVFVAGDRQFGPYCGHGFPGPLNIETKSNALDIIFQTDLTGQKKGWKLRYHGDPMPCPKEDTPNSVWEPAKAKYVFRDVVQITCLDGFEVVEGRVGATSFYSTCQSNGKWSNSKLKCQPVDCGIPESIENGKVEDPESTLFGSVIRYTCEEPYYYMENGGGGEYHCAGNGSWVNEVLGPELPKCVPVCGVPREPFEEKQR
Source text: as §1

[1] = test system: late components of human complement (C3-C9); assay: Test Code 035 (C3-C9 inhibitor), lysis of EAC 142; assay type: biochemical; set-up: key: N = Negative; conditions: in vitro; twofold serial dilution assay
Source text: as §1

complement activity = assay: Guinea Pig Intraperitoneal Test (GPIP); assay type: in vivo, Guinea Pigs; conditions: 200 mg/kg i.p.
Source text: An active inhibitor protects C2 from C1 and C4; (ii) Test Code 035 (C3-C9 inhibitor)--This test determines the ability of the late components of human complement (C3-C9) to lyse EAC 142 in the presence of appropriate dilutions of the test compound. An active inhibitor protects EAC 142 from lysis by human C3-C9; (iii) Test Code 036 (C-Shunt inhibitor)--In this test human erythrocytes rendered fragile are lysed in autologous serum via the shunt pathway activated by cobra venom factor in the presence of appropriate dilutions of the test compound. Inhibition of the shunt pathway results in failure of lysis; (iv) Cap 50 Test-- Here, appropriate amounts of the test compound are added to a pool of guinea pig serum in vitro, after which the undiluted serum capillary tube assay of U.S. Pat. No. 3,876,376 is run. The concentration of compound inhibiting 50% is reported; and (v) Guinea Pig Intraperitoneal Test (GPIP)--Guinea Pigs weighing about 300 g are dosed intraperitoneally (i.p.) with 200 mg/kg of the test compound dissolved in saline and adjusted to pH 7-8. Approximately 0.4 ml blood samples, taken by orbital sinus puncture 30 minutes and one hour after injections, are collected directly into centrifuge tubes; 5 ml blood samples, taken by decapitation 2 hours after injection, are collected directly into diSPo® beakers. The samples are allowed to clot, centrifuged, and the resultant sera are assayed for complement activity using the capillary complement assay. Percent inhibition is calculated by comparison with simultaneous controls. The results of the GPIP appear in Table I together with results of Test Code 026, 035, 036 and Cap 50.

[2] = test system: hereditary angioneurotic edema; conditions: literature reports; cited from earlier work
complement system = conditions: Br. J. Exp. Pathol. 33: 327 (1952); cited from earlier work
human serum = conditions: both in vitro and in vivo, judged by reduction in total hemolytic complement activity; cited from earlier work

O=S(=O)(O)OCC1OC(OCC2OC(COS(=O)(=O)O)(OC3OC(COC4OC(COC5OC(COS(=O)(=O)O)C(OS(=O)(=O)O)C(OS(=O)(=O)O)C5OS(=O)(=O)O)C(OS(=O)(=O)O)C(OS(=O)(=O)O)C4OS(=O)(=O)O)C(OS(=O)(=O)O)C(OS(=O)(=O)O)C3OS(=O)(=O)O)C(OS(=O)(=O)O)C2OS(=O)(=O)O)C(OS(=O)(=O)O)C(OS(=O)(=O)O)C1OC1OC(COS(=O)(=O)O)C(OC2OC(COS(=O)(=O)O)C(OS(=O)(=O)O)C(OS(=O)(=O)O)C2OS(=O)(=O)O)C(OS(=O)(=O)O)C1OS(=O)(=O)O [drawing 12, O-α-D-Galactopyranosyl(1→6)-O-α-D-galactopyranosyl(1.fwd arw.6)-O-α-D-glucopyranosyl(1→2)-O-β-D-fructofuranosyl(1→6)-O-α-D-glucopyranosyl(1→4)-O-α-D-glucopyranosyl-α-D-glucopyranoside, tricosakis (H-sulfate), tricosasodium salt]
C-Shunt Inhibition 036* Wells (shunt pathway): +5 Wells
Cl 026* Wells (activated human C1): +9 Wells
C-Late 035* Wells [1]: N
In vivo Activity (Guinea Pigs) % Inhibition Intraperitoneal, 30 minutes (complement activity; serum 30 minutes after injection): 63%
In vivo Activity (Guinea Pigs) % Inhibition Intraperitoneal, 60 minutes (complement activity; serum 60 minutes after injection): 61%
In vivo Activity (Guinea Pigs) % Inhibition Intraperitoneal, 120 minutes (complement activity; serum 120 minutes after injection): 67%

NCCCCCC(=O)O [epsilon-aminocaproic acid]
treatment of hereditary angioneurotic edema [2]: used with success

O=S(=O)(O)OCC1OC(OCC2OC(COS(=O)(=O)O)(OC3OC(COC4OC(COC5OC(COS(=O)(=O)O)C(OS(=O)(=O)O)C(OS(=O)(=O)O)C5OS(=O)(=O)O)C(OS(=O)(=O)O)C(OS(=O)(=O)O)C4OS(=O)(=O)O)C(OS(=O)(=O)O)C(OS(=O)(=O)O)C3OS(=O)(=O)O)C(OS(=O)(=O)O)C2OS(=O)(=O)O)C(OS(=O)(=O)O)C(OS(=O)(=O)O)C1OC1OC(COS(=O)(=O)O)C(OC2OC(COS(=O)(=O)O)C(OS(=O)(=O)O)C(OS(=O)(=O)O)C2OS(=O)(=O)O)C(OS(=O)(=O)O)C1OS(=O)(=O)O [drawing 11, O-α-D-Galactopyranosyl(1→6)-O-α-D-galactopyranosyl(1→6)-O-α-D-glucopyranosyl(1→2)-O-β-D-fructofuranosyl(1→6)-O-α-D-glucopyranosyl(1→4)-O-α-D-glucopyranosyl-α-D-glucopyranoside, tricosakis (H-sulfate), tricosasalt with trimethylamine]
C-Shunt Inhibition 036* Wells (shunt pathway): +5 Wells
Cl 026* Wells (activated human C1): +9 Wells
C-Late 035* Wells [1]: N

NC[C@H]1CC[C@H](C(=O)O)CC1 [tranexamic acid]
treatment of hereditary angioneurotic edema [2]: used with success

Nc1ccc2cc(S(=O)(=O)[O-])cc(O)c2c1N=Nc1ccc(NC(=O)Nc2ccc(N=Nc3c(N)ccc4cc(S(=O)(=O)[O-])cc(O)c34)c(S(=O)(=O)[O-])c2)cc1S(=O)(=O)[O-].[Na+].[Na+].[Na+].[Na+] [chlorazol fast pink, 3,3'-ureylenebis[6-(2-amino-8-hydroxy-6-sulfo-1-naphthylazo)benzenesulfonic acid], tetrasodium salt]
anti-complementary effect (complement system): anti-complementary effect

heparin
anti-complementary effect (complement system): anti-complementary effect

pentosanpolysulfoester
anticomplementary activity on human serum (human serum): anticomplementary activity
